Assay results from patent US5656603A (Loyola University of Chicago, priority 1995, dated 1997).

Target: T1, angiotensin converting enzyme (EC 3.4.15.1) (Bos taurus, UniProt P12820)
T1 construct: Unless otherwise indicated, the source of each enzyme activity was a detergent extract of bovine lung; from tissue; host or cells: detergent extract of bovine lung
T1 sequence (P12820 29-1306): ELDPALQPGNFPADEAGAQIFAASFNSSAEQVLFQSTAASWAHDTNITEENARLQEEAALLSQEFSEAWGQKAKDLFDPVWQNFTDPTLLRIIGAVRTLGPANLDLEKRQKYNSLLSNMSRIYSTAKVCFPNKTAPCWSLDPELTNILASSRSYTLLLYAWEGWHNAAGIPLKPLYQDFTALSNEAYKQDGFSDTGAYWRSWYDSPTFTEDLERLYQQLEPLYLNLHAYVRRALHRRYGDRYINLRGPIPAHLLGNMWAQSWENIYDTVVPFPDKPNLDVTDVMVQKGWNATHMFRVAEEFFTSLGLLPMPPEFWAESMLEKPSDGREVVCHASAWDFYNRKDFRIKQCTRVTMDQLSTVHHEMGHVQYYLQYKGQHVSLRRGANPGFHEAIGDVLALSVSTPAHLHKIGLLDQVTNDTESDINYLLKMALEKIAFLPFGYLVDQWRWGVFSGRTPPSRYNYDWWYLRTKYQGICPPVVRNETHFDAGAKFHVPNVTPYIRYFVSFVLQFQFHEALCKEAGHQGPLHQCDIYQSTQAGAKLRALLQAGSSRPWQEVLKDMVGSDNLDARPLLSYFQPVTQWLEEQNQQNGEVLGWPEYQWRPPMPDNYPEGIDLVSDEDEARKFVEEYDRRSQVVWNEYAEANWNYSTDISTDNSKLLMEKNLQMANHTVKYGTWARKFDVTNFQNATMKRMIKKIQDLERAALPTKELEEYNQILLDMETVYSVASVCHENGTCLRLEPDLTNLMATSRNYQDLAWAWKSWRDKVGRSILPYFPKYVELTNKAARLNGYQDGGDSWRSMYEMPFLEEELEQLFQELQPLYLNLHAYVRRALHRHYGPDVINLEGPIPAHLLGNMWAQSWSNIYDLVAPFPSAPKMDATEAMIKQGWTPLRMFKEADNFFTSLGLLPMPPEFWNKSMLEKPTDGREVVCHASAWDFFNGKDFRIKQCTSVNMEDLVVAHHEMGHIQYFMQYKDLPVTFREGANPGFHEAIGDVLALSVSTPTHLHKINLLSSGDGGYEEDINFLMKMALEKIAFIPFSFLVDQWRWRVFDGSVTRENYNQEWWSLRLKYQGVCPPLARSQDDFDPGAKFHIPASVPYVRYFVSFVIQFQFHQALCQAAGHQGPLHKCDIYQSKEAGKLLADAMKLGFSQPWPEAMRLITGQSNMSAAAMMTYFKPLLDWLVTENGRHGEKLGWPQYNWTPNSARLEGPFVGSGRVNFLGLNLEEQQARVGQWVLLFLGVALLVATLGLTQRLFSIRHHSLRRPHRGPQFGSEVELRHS
Experiment: Specificity of apstatin: angiotensin converting enzyme
Assay type: biochemical
Details: detergent extract of bovine lung; Hip-His-Leu, pH 6.5, HPLC-1
Experimental: Specificity of Apstatin--Apstatin was assayed for its ability to inhibit several other peptidases. […] Unless otherwise indicated, the source of each enzyme activity was a detergent extract of bovine lung prepared as described in (12-13). Activities were determined by a modification of the fluorescent assay described above (indicated by "FLUO") or by HPLC separation and quantitation of reaction products using the method described in (12) (method "HPLC-1") or the method described below (method "HPLC-2"). […]

C[C@H](NC(=O)[C@@H]1CCCN1C(=O)[C@@H]1CCCN1C(=O)[C@@H](O)[C@H](N)Cc1ccccc1)C(N)=O [apstatin, N-[(2S, 3R)-3-amino-2-hydroxy-4-phenylbutanoyl]-L-prolyl-L-prolyl-Lalaninamide]
IC50: > 800 µM
